Reference: patent publication US20100233701A1, “Use of non-clonal chromosomal aberrations for cancer research and clinical diagnosis” (priority 2008, published 2010)
Peptide text beside a SMILES is read from it. * marks the point of attachment. Cbz = O=C(OCc1ccccc1)*; CH2F = FC*

What was measured:
HCT116 14-3-3−/− cells = test: Mitotic catastrophe model, doxorubicin, scored for chromosome fragmentation; assay type: cell-based; settings: low dose of doxorubicin
Protocol: (§1) Induction of mitotic catastrophe. Mitotic catastrophe was induced as herein described. HCT116 14-3-3−/− cells were treated for up to 72 h with 2 μg/mL doxorubicin and HCT116 p53−/−. The cells were treated with 1 μg/mL aphidicolin for up to 96 h and were each harvested every 24 h. Cytogenetic preparations and cytospin preparations were made allowing for chromosomal and morphologic analysis.
(§2) The present mitotic cell death process differs from previously described mitotic catastrophe. Mitotic catastrophe has been loosely defined as cell death that results from aberrant mitoses. […] Not only do the definitions of mitotic catastrophe differ but there is also a lack of morphologic characterization of chromosomes from cells undergoing mitotic catastrophe. […] Cells were induced to undergo mitotic catastrophe according to published reports. Half of the cells were prepared using reported protocols and half were prepared according to standard cytogenetic procedure to score chromosome fragmentation frequency.

cell population = test: High stress drug treatment, NCCAs and karyotypes; assay type: cell-based; settings: immediately after treatment of a high dosage
Excerpt: First, the same cell line was used with both “high” and “low” levels of stress applied respectively. High stress was applied through chemo-therapy drug treatments (doxorubicin) (Dox) while low stress was generated by altering culture conditions. […] This was illustrated by the drastically altered karyotypes in every cell examined, which persisted until certain karyotypes became dominant (completing the transition from high levels of NCCAs to specific CCAs) following at least 6 weeks of culture in a drug free medium.

mitotic cells = test: Induction of chromosome fragmentation (fragmentation index, cytogenetic scoring); assay type: cell-based
Protocol: Induction of chromosome fragmentation. After 3 to 8 h treatment of colcemid, mitotic cells were gently shaken off and resuspended in culture medium containing colcemid. Cells were then treated with doxorubicin or methotrexate at 1 μg/mL for various times. Cytogenetic examination. Cells were harvested and cytogenetic slides were prepared using standard protocols. Slides were stained by Giemsa for scoring nuclear structures or stored at −20° C. for further characterization including spectral karyotyping (SKY) and antibody staining. The fragmentation index was determined by dividing the number of cells displaying chromosome fragmentation by the total number of mitotic cells, including cells undergoing chromosome fragmentation.

ER stress pathways = test: ER stress agents, western blot and SKY analysis of NCCAs; assay type: cell-based; settings: for NCCA levels: SKY analysis following a short period of culture; for ER stress pathway activation: western blot analysis following the drug treatment
Excerpt: The inventors herein then determined to use a more defined stress condition to validate the link between the stress and the genome evolution. Since the endoplasmic reticulum (ER) has an important role in sensing cellular stress, and the ER stress is well studied, the inventors hypothesize that the defined ER stress will also generate elevated NCCAs leading to the formation of new karyotypes. Specific agents were used to target specific pathways of ER stress including tharpsigargin, tunicamycin and DTT. Tunicamycin interferes with glycalation and results in induction of ER stress. Tharpsigargin inhibits the endoplasmic reticulum calcium ATPase, and results in the release of calcium from the ER, and DTT induces reductive stress through its activity in breaking disulfide bonds which leads to induction of the unfolded protein response. […] As illustrated, the specific ER stress pathways were indeed active in three treatments.

[1] = tested on: cisplatin resistance cell line; test: SKY analysis of NCCAs after Bcl-2 inhibitor treatment; assay type: cell-based
Excerpt: (§3) Following probe denaturation, hybridization and SKY detection, randomly selected mitotic figures were photographed and analyzed by SKY imaging software. Fifty to hundred SKY images were captured for each cell population to identify commonly shared karyotype features and to reveal the karyotypic diversity of these various cell populations. NCCAs were scored by identifying chromosomal numbers, chromosome translocations/large deletions or other types of abnormality detected within a given mitotic cell. There are two steps needed to score frequencies of NCCAs and CCAs. First, a 4% cutoff line is used to identify any specific recurrent karyotypes or CCAs. The frequency of a CCA is determined by calculating the number of cells displaying the same CCA divided by the total cells examined (50-100). Non-clonal karyotypes (NCCAs) are classified as having a frequency lower than 4%. The total frequencies of NCCAs of a given cell population is then calculated by using all cells displaying NCCAs divided by the total cells examined.
4. […] To examine this issue, TW-37, a small-molecule inhibitor drug that specifically binds to and inhibits Bcl-2 was used in a cisplatin resistance cell line that was previously tested. Under treatment conditions resulting in 50% cell death, surviving cells of two cell lines were followed with SKY analysis. […]

caspase-3 = biological target: T1, caspase-3 (Homo sapiens, UniProt P42574); test: Caspase-3 colorimetric activity assay; assay type: cell-based; settings: 20 μmol/L, cells treated with colcemid and doxorubicin
T1 construct: endogenous in cells; host or cells: HCT116
T1 sequence (P42574 29-175 limits assumed): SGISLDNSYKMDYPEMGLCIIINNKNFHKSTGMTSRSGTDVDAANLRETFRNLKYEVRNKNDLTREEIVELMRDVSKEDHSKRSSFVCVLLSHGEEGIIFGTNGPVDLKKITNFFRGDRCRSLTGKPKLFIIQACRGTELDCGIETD
T1 sequence (P42574 176-277 limits assumed): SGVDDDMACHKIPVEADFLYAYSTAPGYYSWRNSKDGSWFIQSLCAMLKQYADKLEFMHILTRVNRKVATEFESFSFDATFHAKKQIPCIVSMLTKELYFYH
Protocol: Caspase-3 activity. Caspase-3 activity was measured using the caspase-3 colorimetric assay kit from R&D Systems as herein described. HCT116 cells were treated for 8 h with colcemid with and without z-vad-fmk. Mitotic cells were then shaken off and treated with doxorubicin for an additional 6 h and 12 h.

HCT116 cells = test: Caspase inhibition during induced chromosome fragmentation; assay type: cell-based; settings: pretreatment with z-vad-fmk, then colcemid and doxorubicin, 6 and 12 h
Protocol: Cytogenetic examination. Cells were harvested and cytogenetic slides were prepared using standard protocols. Slides were stained by Giemsa for scoring nuclear structures or stored at −20° C. for further characterization including spectral karyotyping (SKY) and antibody staining. The fragmentation index was determined by dividing the number of cells displaying chromosome fragmentation by the total number of mitotic cells, including cells undergoing chromosome fragmentation.
Caspase inhibition. Caspase activity was inhibited by treatment of HCT116 cells for 12 h with […] z-vad-fmk followed induction of chromosome fragmentation (by concurrent treatment with colcemid and 1 μg/mL doxorubicin) for 6 or 12 h in the presence of or after removal of z-vad-fmk. Following treatment, cytogenetic slides were made and scored.

HCT116 p53−/− cells [2] = settings: 72 h, reported; cited from earlier work
HCT116 p53−/− cells [3] = test: Mitotic catastrophe model, aphidicolin, scored for chromosome fragmentation; assay type: cell-based; settings: for mitotic fraction: conventional cytogenetic analysis
Protocol: as §1, §2

MDA-MB-231 = test: SKY analysis of NCCAs after proteasome inhibitor treatment; assay type: cell-based; settings: immediately following treatment
Excerpt: as §3
(§4) 5. A comparison of specific and non-specific drugs that target the same pathway: In order to compare directly the effects of challenging the same molecular pathway with specific or nonspecific drug treatments with regard to genome system stability and evolution, the protein degradation pathway was chosen. Two proteasome inhibitors, Bortezomib (also named Velcade or PS-341) and MG132 were used. […] Compared to 132, Bortezomib is more specific. Two breast cancer cell lines, MDA-MB-231 and BT549, were used for this comparison. […] After a few weeks culture, there seemed to be no drastic changes in terms of the formation of new karyotypes.

BT549 = test: as above; assay type: cell-based; settings: following treatment
Excerpt: as §3, §4

[4] = tested on: OV433 and TOV112D cell lines; test: Selection of cisplatin resistant clones, karyotypes by SKY; assay type: cell-based; settings: 6-9 months of selection by gradually increased concentrations
Protocol: 3. Less specific targeted drugs can cause karyotypic changes: A well accepted mechanism of drug resistance acquisition is a specific gene mutation linked to a defined molecular pathway such as the cell death pathway, multiple drug resistance pathway or chromosomal machinery that is responsible for genome integrity. In order to test such a mechanism in the context of genome system evolution, well characterized ovarian cancer cell lines were treated with cisplatin, which is a drug commonly used to treat various types of cancers. The mechanism of this drug is thought to be binding and cross-linking of DNA by platinum complexes, which ultimately triggers apoptosis. The mechanisms of cisplatin resistance have been proposed to include changes in cellular uptake, increased detoxification of the drug, inhibition of apoptosis and increased DNA repair.
The karyotypes were examined by SKY and some key pathways possibly related to the acquisition of drug resistance in the clones were analyzed by western blots.

**Q.** With `COc1cccc2c1C(=O)c1c(O)c3c(c(O)c1C2=O)C[C@@](O)(C(=O)CO)C[C@@H]3O[C@H]1C[C@H](N)[C@H](O)[C@H](C)O1` [doxorubicin] as the compound, how does the “phosphorylated H3 staining” value (HCT116 14-3-3−/− cells) read?
**A.** only a very small fraction of cells show any positive signal

**Q.** What about the chromosome fragmentation (HCT116 14-3-3−/− cells; conventional cytogenetic protocols) of the same compound?
**A.** chromosome fragmentation was not evident

**Q.** And the “level of NCCAs” value (cell population)?
**A.** a high level of NCCAs was quickly detected

**Q.** And the “induction of chromosome fragmentation” value (mitotic cells)?
**A.** can induce chromosome fragmentation

**Q.** And the “chromosome fragmentation in interphase cells” value (mitotic cells; interphase cells, doxorubicin and colcemid preceded by a double thymidine block, up to 24 h)?
**A.** no chromosome fragmentation was observed

**Q.** And the “mitotic cells showing a degree of chromosome fragmentation” value (mitotic cells; mitotic shake-off cells arrested with colcemid, concurrent doxorubicin, within 12 h)?
**A.** ~100%

**Q.** For tunicamycin, which NCCA levels (ER stress pathways) is on record?
**A.** elevated NCCAs were observed

**Q.** And the “ER stress pathway activation” value (ER stress pathways)?
**A.** indeed active

**Q.** Which results are given for `CC(C)c1ccccc1Cc1cc(C(=O)Nc2ccc(S(=O)(=O)c3ccccc3C(C)(C)C)cc2)c(O)c(O)c1O` [TW-37]?
**A.** formation of new karyotypes ([1]; after a few weeks of culture): new stable karyotypes were detected; frequencies of NCCAs ([1]; treatment conditions resulting in 50% cell death, surviving cells of two cell lines): increased

**Q.** With `COC(=O)C[C@H](NC(=O)[C@H](C)NC(=O)[C@@H](NC(=O)OCc1ccccc1)C(C)C)C(=O)CF` [z-vad-fmk] (Cbz-Val-Ala-Asp(OMe)-CH2F) as the compound, how does the caspase-3 reactivity (caspase-3) read?
**A.** largely inhibited

**Q.** And the “chromosome fragmentation frequency upon caspase inhibition” value (HCT116 cells)?
**A.** not significantly altered

**Q.** For `O[C@@H](CS)[C@@H](O)CS` [DTT], which NCCA levels (ER stress pathways) is on record?
**A.** elevated NCCAs were observed

**Q.** And the “ER stress pathway activation” value (ER stress pathways)?
**A.** indeed active

**Q.** For `CN(Cc1cnc2nc(N)nc(N)c2n1)c1ccc(C(=O)N[C@@H](CCC(=O)O)C(=O)O)cc1` [methotrexate], which “induction of chromosome fragmentation” value (mitotic cells) is on record?
**A.** can induce chromosome fragmentation

**Q.** Which cells died (HCT116 p53−/− cells [2]) does the source give for `C[C@@]1(CO)[C@H](O)CC[C@@]2(C)[C@H]1CC[C@H]1C[C@@H]3C[C@@]12CC[C@]3(O)CO` [aphidicolin] here?
**A.** 40%

**Q.** What about the mitotic fraction (HCT116 p53−/− cells [3]; 72 h) of the same compound?
**A.** 3.2%

**Q.** And the chromosome breaks (HCT116 p53−/− cells [3]; 96 h)?
**A.** evident in the majority of chromosome spreads

**Q.** What about the mitotic fraction (HCT116 p53−/− cells [3]; 96 h) of the same compound?
**A.** 5.4%

**Q.** For `CC(C)C[C@H](NC(=O)[C@H](Cc1ccccc1)NC(=O)c1cnccn1)B(O)O` [Bortezomib], which NCCAs (MDA-MB-231) is on record?
**A.** showed an increase in NCCAs

**Q.** And the NCCA frequencies (BT549)?
**A.** failed to generate increased NCCA frequencies

**Q.** With tharpsigargin as the compound, how does the NCCA levels (ER stress pathways) read?
**A.** elevated NCCAs were observed

**Q.** What about the “ER stress pathway activation” value (ER stress pathways) of the same compound?
**A.** indeed active

**Q.** Which “karyotypes of drug resistant clones” value [4] does the source give for `N.N.[Cl][Pt][Cl]` [cisplatin] here?
**A.** drastically different karyotypes

**Q.** For `CC(C)C[C@@H](C=O)NC(=O)[C@H](CC(C)C)NC(=O)[C@H](CC(C)C)NC(=O)OCc1ccccc1` [MG132] (Cbz-Leu-Leu-Leu-aldehyde), which NCCAs (MDA-MB-231) is on record?
**A.** showed an increase in NCCAs

**Q.** And the NCCA frequencies (BT549)?
**A.** failed to generate increased NCCA frequencies
